Experimental data taken from the supplement of paper PMC10307832.

Legend:
Experiment in all cases: relative viability (nuclei count vs DMSO), 5 days (fraction); higher = more cells survive
Zebularine + Dasatinib = compound: O=c1ncccn1[C@@H]1O[C@H](CO)[C@@H](O)[C@H]1O [Zebularine] + Cc1nc(Nc2ncc(C(=O)Nc3c(C)cccc3Cl)s2)cc(N2CCN(CCO)CC2)n1 [Dasatinib] (partner 0.075 µM)
Outline: (§1)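 Relative viability divides the nuclei count in treated wells by that in vehicle wells. Lung cancer cell lines were seeded in 1536-well plates, dosed by pin tool the next day, and fixed and stained after 5 days in one step with final 0.05% Triton X-100, 1% formaldehyde and 1 ug/ml Hoechst. Dosing was a single drug or a fixed anchor-drug dose plus five library-drug doses (not always all listed) in √10 steps, and values are medians of duplicate plates imaged at 4×.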

BI-D1870 + Decitabine = compound: CC(C)CCN1c2nc(Nc3cc(F)c(O)c(F)c3)ncc2N(C)C(=O)C1C [BI-D1870] + Nc1ncn([C@H]2C[C@H](O)[C@@H](CO)O2)c(=O)n1 [Decitabine] (partner 2 µM)
Outline: as §1

Zebularine + Luminespib = compound: O=c1ncccn1[C@@H]1O[C@H](CO)[C@@H](O)[C@H]1O [Zebularine] + CCNC(=O)c1noc(-c2cc(C(C)C)c(O)cc2O)c1-c1ccc(CN2CCOCC2)cc1 [Luminespib] (partner 0.01 µM)
Outline: as §1

BI-D1870 + Bortezomib = compound: CC(C)CCN1c2nc(Nc3cc(F)c(O)c(F)c3)ncc2N(C)C(=O)C1C [BI-D1870] + CC(C)C[C@H](NC(=O)[C@H](Cc1ccccc1)NC(=O)c1cnccn1)B(O)O [Bortezomib] (partner 0.002 µM)
Outline: as §1

| Cell Line | relative viability (Zebularine + Dasatinib; first compound 1 µM) | relative viability (Zebularine + Dasatinib; first compound 3.162 µM) | relative viability (Zebularine + Dasatinib; first compound 10 µM) | relative viability (Zebularine + Dasatinib; first compound 31.62 µM) | relative viability (Zebularine + Dasatinib; first compound 100 µM) | relative viability (BI-D1870 + Decitabine; first compound 0.04 µM) | relative viability (BI-D1870 + Decitabine; first compound 0.1265 µM) | relative viability (BI-D1870 + Decitabine; first compound 0.4 µM) | relative viability (BI-D1870 + Decitabine; first compound 1.265 µM) | relative viability (BI-D1870 + Decitabine; first compound 4 µM) | relative viability (Zebularine + Luminespib; first compound 1 µM) | relative viability (Zebularine + Luminespib; first compound 3.162 µM) | relative viability (Zebularine + Luminespib; first compound 10 µM) | relative viability (Zebularine + Luminespib; first compound 31.62 µM) | relative viability (Zebularine + Luminespib; first compound 100 µM) | relative viability (BI-D1870 + Bortezomib; first compound 0.04 µM) | relative viability (BI-D1870 + Bortezomib; first compound 0.1265 µM) | relative viability (BI-D1870 + Bortezomib; first compound 0.4 µM) | relative viability (BI-D1870 + Bortezomib; first compound 1.265 µM) | relative viability (BI-D1870 + Bortezomib; first compound 4 µM) |
| --- | --- | --- | --- | --- | --- | --- | --- | --- | --- | --- | --- | --- | --- | --- | --- | --- | --- | --- | --- | --- |
| NCI-H650 | 0.462 | 0.486 | 0.403 | 0.397 | 0.268 | 0.336 | 0.339 | 0.331 | 0.314 | 0.286 | 0.776 | 0.742 | 0.595 | 0.355 | 0.224 | 1.11 | 0.784 | 0.899 | 0.96 | 0.611 |
| NCI-H661 | 0.833 | 0.918 | 0.868 | 1.05 | 0.819 | 0.524 | 0.555 | 0.542 | 0.651 | 0.546 | 1.02 | 0.948 | 0.686 | 1.01 | 0.895 | 0.801 | 0.67 | 0.695 | 1.01 | 0.808 |
| NCI-H727 | 0.383 | – | – | 0.349 | 0.356 | 1.02 | 0.883 | 0.909 | 0.921 | 1.01 | 0.382 | – | – | 1.01 | 0.272 | 0.813 | 0.724 | 0.913 | 1.24 | 0.833 |
| NCI-H838 | 0.318 | 0.238 | 0.239 | 0.268 | 0.278 | 0.47 | 0.483 | 0.477 | 0.444 | 0.523 | 0.299 | 0.312 | 0.276 | 0.243 | 0.228 | 0.901 | 0.72 | 0.747 | 1.14 | 0.768 |
| NCI-H1355 | 0.757 | 0.746 | 0.525 | 0.617 | 0.458 | 0.363 | 0.31 | 0.356 | 0.412 | 0.394 | 0.93 | 0.654 | 0.595 | 0.452 | 0.29 | 1.24 | 1.22 | 1.21 | 1.28 | 1.02 |
| NCI-H1437 | 0.521 | 0.462 | 0.333 | 0.531 | 0.459 | 0.59 | 0.53 | 0.756 | 0.629 | 0.56 | 1.22 | 1.23 | 0.956 | 1.16 | 0.59 | 0.539 | 0.474 | 0.478 | 0.466 | 0.423 |
| NCI-H1650 | 0.384 | 0.366 | 0.324 | 0.342 | 0.312 | 0.405 | 0.43 | 0.554 | 0.572 | 0.589 | 0.188 | 0.222 | 0.176 | 0.234 | 0.225 | 0.214 | 0.223 | 0.209 | 0.184 | 0.186 |
| NCI-H1651 | 0.399 | 0.359 | 0.343 | 0.53 | 0.247 | 0.615 | 0.592 | 0.537 | 0.64 | 0.617 | 0.986 | 0.831 | 0.688 | 0.738 | 0.519 | 1.06 | 0.943 | 0.885 | 1.01 | 0.903 |
